Laboratory results: patent publication US11214803B2, “Modulators of YAP1 expression” (Ionis Pharmaceuticals, Inc., priority 2019, dated 2022)
Strand notation (5' to 3'): a small letter for the sugar, then the base; units joined by * are phosphorothioate-linked, units joined directly phosphodiester-linked; [ ] holds rarer units or linkages, { } end groups; capitals alone tell only the bases. k = constrained ethyl (cEt); [5mC] = 5-methylcytosine; d = 2'-deoxy (DNA)

Test system: Yap1 mRNA
Assay: Antisense inhibition of human Yap1 in A-431 cells by cEt gapmers, single dose (Example 2, RTS4814)
Assay type: cell-based
Outline: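 Single-dose knockdown screen of 3-10-3 cEt phosphorothioate gapmers at 2,000 nM added by free uptake to A-431 cells. After roughly 48 h, RNA was isolated and Yap1 transcript measured by RT-qPCR, with results given as % UTC.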

[1] = Table 22, Yap1 mRNA as percent of untreated control, 3-10-3 cEt gapmers, single dose
[2] = Table 20, Yap1 mRNA, percent of untreated control, 3-10-3 cEt gapmers targeting SEQ ID NO.: 1 and 2
[3] = Table 21, Yap1 mRNA, percent of untreated control, 3-10-3 cEt gapmers targeting SEQ ID NO.: 1 and 2
[4] = Table 19, A-431 cells, 5,000 cells per well, free uptake, 2,000 nM modified oligonucleotide, approx. 48 hours, RTS4814, normalized to RIBOGREEN, Yap1 mRNA as percent of untreated control
[5] = Table 6, A-431 cells, 5,000 cells per well, free uptake, 2,000 nM modified oligonucleotide, approx. 48 hours, RTS4814, normalized to RIBOGREEN, Yap1 mRNA relative to untreated control cells
[6] = Table 5, A-431 cells, 5,000 cells per well, free uptake, 2,000 nM modified oligonucleotide, approx. 48 hours, RTS4814, normalized to RIBOGREEN, Yap1 mRNA relative to untreated control cells
[7] = Table 25, Yap1 mRNA as percent of untreated control, 3-10-3 cEt gapmers targeting SEQ ID NO.: 1, and 2
[8] = Table 33, Yap1 mRNA, percent of untreated control, 3-10-3 cEt gapmers targeting SEQ ID NO.: 1, and 2
[9] = Yap1 mRNA as percent of untreated control, A-431 cells, 3-10-3 cEt gapmers targeting SEQ ID NO.: 1, and 2, Table 30
[10] = Table 18, A-431 cells, 5,000 cells per well, free uptake, 2,000 nM modified oligonucleotide, approx. 48 hours, RTS4814, normalized to RIBOGREEN, Yap1 mRNA as percent of untreated control
[11] = Table 32, Yap1 mRNA, percent of untreated control, 3-10-3 cEt gapmers targeting SEQ ID NO.: 1, and 2
[12] = A-431 cells, 5,000 cells per well, free uptake, 2,000 nM modified oligonucleotide, approx. 48 hours, RTS4814, normalized to RIBOGREEN, Table 4, asterisk (*) = targets amplicon region of primer probe set
[13] = Table 24, Yap1 mRNA as percent of untreated control, 3-10-3 cEt gapmers targeting SEQ ID NO.: 1, and 2

1074216 (antisense kG*kA*kT*dT*dT*dG*dG*dG*d[5mC]*dT*d[5mC]*d[5mC]*dG*kG*k[5mC]*kG) [Compound 1074216]
YAP1 (% UTC) [1]: 58 % UTC

1076198 (k[5mC]*kT*kA*dT*dT*dA*dT*d[5mC]*dA*dA*dG*dG*dG*kA*kA*kT; antisense) [Compound 1076198]
YAP1 (% UTC) [2]: 81 % UTC

1075655 (k[5mC]*kT*kA*dT*dT*dA*dA*dG*dA*d[5mC]*dG*dA*dA*kT*k[5mC]*k[5mC]; antisense) [Compound 1075655]
YAP1 (% UTC) [3]: 38 % UTC

1075749 (kA*kA*kT*dT*dA*dT*dG*dA*dA*dT*dG*dA*dT*kG*kG*kG; antisense) [Compound 1075749]
YAP1 (% UTC) [4]: 4 % UTC

716573 (kA*kG*kT*dT*dA*d[5mC]*dT*dA*d[5mC]*dT*dG*dT*dA*kA*kT*k[5mC]; antisense) [Compound 716573]
YAP1 (% UTC) [5]: 116 % UTC

716360 (k[5mC]*kT*kG*d[5mC]*d[5mC]*d[5mC]*dG*dG*dG*dA*dT*d[5mC]*d[5mC]*kA*kT*kG; antisense) [Compound 716360]
YAP1 (% UTC) [5]: 118 % UTC

716389 (kA*kG*k[5mC]*d[5mC]*dT*dT*dG*dG*dG*dT*d[5mC]*dT*dA*kG*k[5mC]*k[5mC]; antisense) [Compound 716389]
YAP1 (% UTC) [6]: 93 % UTC

1076327 (kG*kA*kT*dA*dA*dG*d[5mC]*dA*dA*dG*dG*dT*dT*k[5mC]*kT*k[5mC]; antisense) [Compound 1076327]
YAP1 (% UTC) [3]: 7 % UTC

1075019 (antisense k[5mC]*kA*kT*dT*dA*dG*dA*dG*dT*dT*dT*dG*dA*kT*kT*kA) [Compound 1075019]
YAP1 (% UTC) [7]: 64 % UTC

1075365 (k[5mC]*kA*k[5mC]*dG*dA*dA*dA*dA*dT*dA*dG*dT*dT*k[5mC]*kT*k[5mC]; antisense) [Compound 1075365]
YAP1 (% UTC) [4]: 11 % UTC

1075879 (kG*kA*kA*dT*dA*dA*dA*dG*dA*dA*dG*dT*d[5mC]*kA*k[5mC]*k[5mC]; antisense) [Compound 1075879]
YAP1 (% UTC) [3]: 77 % UTC

1074632 (antisense kT*k[5mC]*kA*dT*dA*dG*d[5mC]*dA*dG*d[5mC]*dT*dT*dT*kT*kG*k[5mC]) [Compound 1074632]
YAP1 (% UTC) [1]: 12 % UTC

1074725 (antisense kG*kT*kA*dT*dA*dA*d[5mC]*dT*dG*dG*dG*d[5mC]*dA*kA*kA*kT) [Compound 1074725]
YAP1 (% UTC) [4]: 17 % UTC

1075205 (antisense kA*kT*kT*dA*dA*dA*dT*dG*dA*dG*d[5mC]*dA*d[5mC]*k[5mC]*kA*k[5mC]) [Compound 1075205]
YAP1 (% UTC) [4]: 29 % UTC

1075923 (antisense kT*kT*kT*dA*dA*dT*dA*d[5mC]*dT*d[5mC]*dT*d[5mC]*dT*kG*kG*kG) [compound 1075923]
YAP1 (% UTC) [8]: 42 % UTC

1075696 (kT*kT*kA*d[5mC]*dA*dA*dA*dA*dG*dT*dT*dA*d[5mC]*kT*kG*k[5mC]; antisense) [compound 1075696]
YAP1 (% UTC) [9]: 28 % UTC

716347 (kT*kG*k[5mC]*d[5mC]*dT*dT*dT*d[5mC]*d[5mC]*d[5mC]*d[5mC]*dG*d[5mC]*k[5mC]*kT*k[5mC]; antisense) [Compound 716347]
YAP1 (% UTC) [6]: 85 % UTC

1075686 (kG*kT*kA*dA*dT*dT*dA*d[5mC]*dA*dG*dT*dG*dT*k[5mC]*kT*k[5mC]; antisense) [Compound 1075686]
YAP1 (% UTC) [2]: 10 % UTC

1074980 (antisense kT*kA*kT*dT*dG*d[5mC]*d[5mC]*dA*dG*dT*dT*d[5mC]*dT*kT*kG*kT) [Compound 1074980]
YAP1 (% UTC) [10]: 26 % UTC

1076455 (antisense kA*k[5mC]*kT*dA*dA*dA*dT*dA*d[5mC]*dT*dT*dT*dT*kA*kG*k[5mC]) [Compound 1076455]
YAP1 (% UTC) [3]: 86 % UTC

1074195 (antisense k[5mC]*k[5mC]*k[5mC]*dG*dG*dG*dT*d[5mC]*d[5mC]*dG*dG*dA*d[5mC]*kG*kG*k[5mC]) [compound 1074195]
YAP1 (% UTC) [8]: 79 % UTC

1074258 (antisense kA*kT*kA*dT*dT*d[5mC]*dT*dG*d[5mC]*dT*dG*d[5mC]*dA*k[5mC]*kT*kG) [compound 1074258]
YAP1 (% UTC) [11]: 36 % UTC

1075058 (antisense kA*kT*kT*dA*d[5mC]*dA*dA*dA*dG*dT*dA*dG*d[5mC]*kA*kA*k[5mC]) [compound 1075058]
YAP1 (% UTC) [11]: 66 % UTC

716496 (kG*kA*kA*dG*dA*dG*dA*dT*dT*dT*dT*dA*dT*kG*k[5mC]*k[5mC]; antisense) [Compound 716496]
YAP1 (% UTC) [12]: 19 % UTC

1074244 (antisense k[5mC]*kT*k[5mC]*dT*dG*dA*d[5mC]*d[5mC]*dA*dG*dA*dA*dG*kA*kT*kG) [Compound 1074244]
YAP1 (% UTC) [10]: 95 % UTC

1076497 (kA*kA*kA*dG*dA*dA*dT*dA*d[5mC]*d[5mC]*dA*dA*d[5mC]*k[5mC]*kT*kG; antisense) [compound 1076497]
YAP1 (% UTC) (Yap1 mRNA as percent of untreated control, A-431 cells, 3-10-3 cEt gapmers targeting SEQ ID NO.: 1, and 2, Table 31): 72 % UTC

1075731 (k[5mC]*k[5mC]*k[5mC]*d[5mC]*dA*dA*dT*dA*dT*dT*dA*dT*d[5mC]*kT*kA*k[5mC]; antisense) [compound 1075731]
YAP1 (% UTC) [8]: 40 % UTC

1075047 (antisense kT*kA*kA*dA*dA*dT*dT*dA*dG*dA*d[5mC]*dT*d[5mC]*k[5mC]*k[5mC]*k[5mC]) [Compound 1075047]
YAP1 (% UTC) [3]: 7 % UTC

716446 (kG*k[5mC]*kA*d[5mC]*dA*d[5mC]*d[5mC]*d[5mC]*dA*d[5mC]*dA*dA*dA*kA*kT*kT; antisense) [Compound 716446]
YAP1 (% UTC) [6]: 83 % UTC

1074474 (k[5mC]*k[5mC]*kA*dA*d[5mC]*d[5mC]*d[5mC]*d[5mC]*d[5mC]*d[5mC]*d[5mC]*dA*d[5mC]*k[5mC]*kG*kA; antisense) [Compound 1074474]
YAP1 (% UTC) [13]: 71 % UTC

1075332 (kA*kG*k[5mC]*dG*dG*dG*dT*dT*dT*dA*dG*dA*dA*kT*kG*k[5mC]; antisense) [Compound 1075332]
YAP1 (% UTC) [10]: 66 % UTC

716564 (k[5mC]*kT*kT*dT*dT*dG*dG*dG*d[5mC]*dA*dA*dA*dG*kT*kT*k[5mC]; antisense) [Compound 716564]
YAP1 (% UTC) [5]: 103 % UTC

716376 (k[5mC]*kG*kA*dA*dG*dA*dT*dG*d[5mC]*dT*dG*dA*dG*k[5mC]*kT*kG; antisense) [Compound 716376]
YAP1 (% UTC) [12]: 35 % UTC

1076555 (antisense kT*kG*kG*dG*dA*dA*dT*dA*dG*dT*dA*d[5mC]*dA*k[5mC]*kA*kG) [Compound 1076555]
YAP1 (% UTC) [7]: 19 % UTC

1074259 (antisense kT*k[5mC]*kA*dT*dA*dT*dT*d[5mC]*dT*dG*d[5mC]*dT*dG*k[5mC]*kA*k[5mC]) [compound 1074259]
YAP1 (% UTC) [8]: 38 % UTC

1074960 (antisense k[5mC]*kT*kT*dA*dA*d[5mC]*d[5mC]*d[5mC]*dG*dG*dG*dT*dT*kT*kT*kT) [compound 1074960]
YAP1 (% UTC) [9]: 81 % UTC

1075337 (kG*k[5mC]*kT*dT*dA*dT*dA*dT*d[5mC]*d[5mC]*dT*dG*dT*kA*kA*k[5mC]; antisense) [Compound 1075337]
YAP1 (% UTC) (Table 23, Yap1 mRNA as percent of untreated control, 3-10-3 cEt gapmers, single dose): 48 % UTC

716361 (kG*kG*kT*dT*dG*dA*dG*dG*d[5mC]*dG*dG*d[5mC]*dG*kG*k[5mC]*kT; antisense) [Compound 716361]
YAP1 (% UTC) [12]: 75 % UTC

1074827 (kT*kA*kA*dA*dA*dT*d[5mC]*d[5mC]*dA*d[5mC]*d[5mC]*dT*dG*kA*kG*k[5mC]; antisense) [Compound 1074827]
YAP1 (% UTC) [7]: 39 % UTC

1075338 (k[5mC]*k[5mC]*k[5mC]*dA*dA*dA*dA*dA*d[5mC]*dT*dA*dG*d[5mC]*kT*kT*kA; antisense) [Compound 1075338]
YAP1 (% UTC) [13]: 56 % UTC

716510 (antisense k[5mC]*kA*kA*d[5mC]*dA*dT*dG*d[5mC]*dT*dA*dT*dG*dT*kA*kA*kT) [Compound 716510]
YAP1 (% UTC) [5]: 122 % UTC

1074162 (kA*kG*kG*d[5mC]*dG*dA*dG*d[5mC]*dG*dA*dG*dG*dG*k[5mC]*kT*kA; antisense) [compound 1074162]
YAP1 (% UTC) [11]: 101 % UTC

1075435 (antisense k[5mC]*kT*kT*dA*dA*dA*d[5mC]*dG*dA*dT*dA*dA*dA*kG*kT*kA) [Compound 1075435]
YAP1 (% UTC) [7]: 93 % UTC

716527 (antisense kA*kG*kT*dA*d[5mC]*dA*dG*dA*dG*dG*dG*d[5mC]*dA*kT*k[5mC]*kG) [Compound 716527]
YAP1 (% UTC) [6]: 64 % UTC

1076392 (kT*kA*kT*dT*dA*dA*dT*d[5mC]*dA*dA*dA*dT*dA*kG*kG*kG; antisense) [Compound 1076392]
YAP1 (% UTC) [1]: 64 % UTC
